We go through 3 compounds from patent US9902713B2, “Neuroprotective compounds and use thereof” (BOARD OF REGENTS OF THE UNIVERSITY OF TEXAS SYSTEM, priority 2013, dated 2018).

SMILES strings stand for the structures. pIC50: −log10 of the molar value.

Data set [1] can be described thus: Protein binding. The data set is classed as in vitro ADME.
Data set [2] has as its system blood-brain barrier. The experiment in a line: Blood brain barrier permeability assay (Evans blue). The class given is in vivo. The settings on record: sham-injured mice, 3 days of daily treatment. The source says:
On the basis of the promising results seen with administration of P7C3-A20 or P7C3-S243 immediately after injury, we sought to determine whether P7C3-S243 could offer protective efficacy when treatment was initiated later. Because TBI can disrupt the blood-brain barrier (BBB), we first examined BBB integrity over time by means of the Evans blue assay. Evans blue is an azo dye with tight affinity for albumin, such that in serum virtually all Evans blue is albumin-bound. Normally, serum albumin cannot cross the BBB. However, when the BBB is compromised, albumin and its bound Evans blue can enter the CNS. The magnitude of Evans blue accumulation in the brain can then be spectrophotometrically determined in order to monitor disruption of the BBB (Uyama et al., 1988; Hawkins and Egleton, 2006). With this technique, we observed significant disruption of the BBB 6 hours after blast-injury, with integrity of the BBB recovering to normal 18 hours later (FIG. 21B).
Blood brain barrier (BBB) permeability assay. […] To quantify the extravasation of albumin-bound EBD in each brain, tissue was weighed and incubated for 30 minutes at room temperature in 50% Tricholoracetic acid (TCA) in PBS at a 3:1 μl/mg ratio. […] Fluorescence was measured using a SpectraMax M2^e (Molecular Devices) in 100 μl of samples plated on a 96-well plate at excitation wavelength of 620 nm and an emission wavelength of 680 nm.

For data set [3], the system named is H2122. The experiment in a line: Toxicity towards human cancer cell line. The data set is classed as cell-based. Particulars: NCI-H2122.
Data set [4] has as its system HCC44. The experiment in a line: Toxicity towards human cancer cell line. The class given is cell-based.
Data set [5] deals with 3A4 (Homo sapiens, UniProt P08684). The experiment in a line: Cytochrome P450 inhibition. The data set is classed as in vitro ADME.
Sequence of 3A4 (P08684 whole entry): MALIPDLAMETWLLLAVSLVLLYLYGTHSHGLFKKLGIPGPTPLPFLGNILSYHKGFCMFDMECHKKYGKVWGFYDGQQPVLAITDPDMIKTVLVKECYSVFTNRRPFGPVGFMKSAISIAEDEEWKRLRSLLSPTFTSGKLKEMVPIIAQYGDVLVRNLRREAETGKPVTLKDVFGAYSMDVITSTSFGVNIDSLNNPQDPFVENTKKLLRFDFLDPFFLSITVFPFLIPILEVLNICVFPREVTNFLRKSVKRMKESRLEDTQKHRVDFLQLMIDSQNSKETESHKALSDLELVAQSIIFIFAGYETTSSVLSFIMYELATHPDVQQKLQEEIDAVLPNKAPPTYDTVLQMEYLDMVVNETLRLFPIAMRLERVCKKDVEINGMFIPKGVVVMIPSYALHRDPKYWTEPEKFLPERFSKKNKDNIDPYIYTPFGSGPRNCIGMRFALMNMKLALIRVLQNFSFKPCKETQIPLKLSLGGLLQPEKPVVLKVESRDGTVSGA
Data set [6] concerns the target 2B6 (Homo sapiens, UniProt P20813). The experiment in a line: Cytochrome P450 inhibition. The class given is in vitro ADME.
Data set [7] concerns the target peripheral benzodiazepine receptor (translocator protein, TSPO) (Rattus norvegicus, UniProt P16257). The experiment in a line: Ligand displacement (Psychoactive Drug Screening Program). The data set is classed as binding.
In data set [8] the test system is hippocampal CA1 neurons, myelin and mitochondria. The experiment in a line: Toluidine blue staining and TEM of hippocampus after blast-injury. The data set is classed as in vivo, mice. As for the experimental part: To further examine hippocampal structural pathology, we turned to ultrathin ([…]) section histology using toluidine blue staining, as well as transmission electron microscopy (TEM) (FIG. 31). […] In blast-injured animals, however, we observed accumulation of chromatolytic and pyknotic neurons in the CA1 stratum pyramidale, accompanied by decreased dendritic extensions in the stratum radiatum, indicating general ongoing pathologic processes associated with neurodegeneration and consistent with our electrophysiologic data in FIG. 17.
The stratum radiatum is where CA3 Schaeffer collateral axons synapse with dendrites of CA1 pyramidal cells. This was the circuit we investigated electrophysiologically (FIG. 17), and we next turned to TEM to further characterize blast-injury induced axonal degeneration. […] These axons contained intact and healthy-appearing mitochondria.
Toluidine blue staining and transmission electron microscopy (TEM). Mice were transcardially perfused with Karnovsky's fixative solution (2% formaldehyde, 2.5% glutaraldehyde, 0.2M sodium cacodylate buffer, 1 mM CaCl2, 2 mM MgCl2, and 42.8 mM NaCl, pH 7.4) two weeks after either sham- or blast-Injury and with or without specified compound treatment. Harvested brains were incubated in Karnovsky's overnight at 4° C. Whole brains were cut in the horizontal plane (100 μm) using a vibratome (Leica 1500). Sections that contained the hippocampus were selected, washed with 0.1M sodium cacodylate buffer and then post fixed with 1% osmium fixative for 1 hr. After washing in 0.1M sodium cacodylate buffer, sections were dehydrated in a series of ethanol (50%, 75%, 95% and 100% ethanol) followed by embedding in EPON resin overnight at 65° C. For toluidine blue staining, semithin sections (1 μm) were cut with an ultramicrotome (Leica UC6) and stained with toluidine blue. Pictures were taken using an upright microscope (Zeiss Axio Imager.M2) with a color camera (AxioCam ICc5). For TEM, ultrathin sections (60 nm) adjacent to the semithin sections were cut with an ultramicrotome, loaded onto a Formvar 200-mesh Ni grid, and counterstained with uranyl acetate and lead citrate. Specimens were examined using a JEOL JEM 1230 electron microscope with a Gatan UltraScan 1000 2 k×2 k CCD camera. See also FIG. 31.

For data set [9], the system named is blast-injured mice. The experiment in a line: Foot slip assay after blast-injury. The class given is in vivo. Particulars: 28 days after injury, daily oral 6 mg/kg/day from 24 hours. From the text: Because the cerebellum controls coordination, we next assayed their balance and coordination, using standard procedures (Luong et al., 2011). Mice were trained to cross an 80 cm long beam over 2 days, and then sham or blast-injured on day 3. […] Mice were videotaped during the test, and then analyzed for the number of foot slips by observers blind to treatment group. […] Thus, protective efficacy for cerebellar axonal degeneration after injury by (−)-P7C3-S243 correlated with preservation of motor coordination.
Foot slip assay. We used standard procedures described by Luong et al. (2011) to measure motor balance coordination. During the training period, mice were trained to cross the 80 cm beam to enter a black box with nesting material 3 times a day over 2 consecutive days. Mice were then sham-or blast-Injured on the next day. 24 hrs after injury, daily administration with (−)-P7C3-S243 or vehicle was initiated. Animals were then tested 7 and 28 days after injury. Mice performance was videotaped during the test and foot slips were analyzed by an observer blind to condition and treatment group.

Data set [10] relates to blast-injured mice. The experiment in a line: Barnes maze, treatment begun 10 months after blast injury. The data set is classed as in vivo. From the text:
After 8 weeks of treatment, mice were completely withdrawn from treatment with vehicle or compound.

Data set [11] addresses hERG (Homo sapiens, UniProt Q12809). The experiment in a line: hERG patch clamp assay. (The hERG channel carries a current that helps repolarise heart muscle cells.)
Data set [12] concerns cerebral cortical neurons. The settings on record: previously reported; cited from earlier work.
Where [13] appears, read: blast-injured, oral 0.3 mg/kg/day.

Sequence of 2B6 (P20813 whole entry): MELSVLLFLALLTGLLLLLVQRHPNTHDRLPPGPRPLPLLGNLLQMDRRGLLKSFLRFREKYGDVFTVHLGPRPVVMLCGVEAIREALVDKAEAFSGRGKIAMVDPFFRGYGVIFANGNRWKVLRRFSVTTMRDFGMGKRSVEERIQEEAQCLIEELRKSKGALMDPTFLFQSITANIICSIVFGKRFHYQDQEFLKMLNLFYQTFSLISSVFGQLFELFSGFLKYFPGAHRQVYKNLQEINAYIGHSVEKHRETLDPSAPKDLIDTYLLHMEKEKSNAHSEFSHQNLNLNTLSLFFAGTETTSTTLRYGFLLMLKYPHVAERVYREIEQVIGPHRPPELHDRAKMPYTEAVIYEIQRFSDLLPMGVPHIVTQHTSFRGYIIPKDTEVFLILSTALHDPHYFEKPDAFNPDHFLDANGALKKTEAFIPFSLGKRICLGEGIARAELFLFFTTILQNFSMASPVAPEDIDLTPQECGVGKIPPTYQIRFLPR
Sequence of hERG (Q12809 whole entry): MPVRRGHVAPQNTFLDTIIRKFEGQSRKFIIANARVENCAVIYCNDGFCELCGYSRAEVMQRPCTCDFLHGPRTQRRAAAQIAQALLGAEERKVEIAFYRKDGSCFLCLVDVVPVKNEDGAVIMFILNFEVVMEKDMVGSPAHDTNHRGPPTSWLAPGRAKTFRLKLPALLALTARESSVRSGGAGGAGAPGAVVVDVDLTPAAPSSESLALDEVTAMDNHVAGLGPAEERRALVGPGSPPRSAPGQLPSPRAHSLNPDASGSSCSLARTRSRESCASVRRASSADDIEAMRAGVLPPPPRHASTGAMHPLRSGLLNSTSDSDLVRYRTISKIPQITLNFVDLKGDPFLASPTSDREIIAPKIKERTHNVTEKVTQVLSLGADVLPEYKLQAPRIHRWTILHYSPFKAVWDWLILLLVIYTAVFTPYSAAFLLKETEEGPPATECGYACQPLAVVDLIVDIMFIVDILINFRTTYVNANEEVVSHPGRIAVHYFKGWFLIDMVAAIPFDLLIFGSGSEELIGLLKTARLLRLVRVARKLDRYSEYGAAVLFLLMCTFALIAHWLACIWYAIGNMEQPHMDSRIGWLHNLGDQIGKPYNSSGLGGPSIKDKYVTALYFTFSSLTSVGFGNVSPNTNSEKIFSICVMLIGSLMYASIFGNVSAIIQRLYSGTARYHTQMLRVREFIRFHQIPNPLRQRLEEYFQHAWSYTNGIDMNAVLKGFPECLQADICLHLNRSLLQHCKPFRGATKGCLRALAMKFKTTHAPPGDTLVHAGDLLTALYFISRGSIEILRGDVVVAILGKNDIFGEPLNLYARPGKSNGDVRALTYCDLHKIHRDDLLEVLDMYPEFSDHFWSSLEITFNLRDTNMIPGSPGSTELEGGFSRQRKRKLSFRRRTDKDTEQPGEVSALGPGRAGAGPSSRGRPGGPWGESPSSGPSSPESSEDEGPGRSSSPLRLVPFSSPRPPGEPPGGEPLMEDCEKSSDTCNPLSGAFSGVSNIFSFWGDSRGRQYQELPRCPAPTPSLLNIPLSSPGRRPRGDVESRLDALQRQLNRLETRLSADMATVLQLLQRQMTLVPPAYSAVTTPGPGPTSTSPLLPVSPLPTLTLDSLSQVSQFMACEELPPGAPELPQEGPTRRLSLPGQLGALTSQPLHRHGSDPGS

For the compound `COc1cccc(NCC(F)Cn2c3ccc(Br)cc3c3cc(Br)ccc32)n1` (racemic) [P7C3-S243, N-(3-(3,6-dibromo-9H-carbazol-9-yl)-2-fluoropropyl)-6-methoxypyridin-2-amine], the protein binding result in data set [1] is “high”. Further, in data set [2], the BBB integrity entry is “did not compromise BBB integrity”.
With `COc1cccc(NCC(F)Cn2c3ccc(Br)cc3c3cc(Br)ccc32)n1` (single isomer, unassigned; (-)) [(−)-P7C3-S243, (−)-N-(3-(3,6-dibromo-9H-carbazol-9-yl)-2-fluoropropyl)-6-methoxypyridin-2-amine], the pIC50 in data set [3] is less than 5.00; in [4], less than 5.00; in data set [7], 6.46. Also, the “sensitivity of cytochrome P450” value in data set [5] and in [6] was “insensitive” throughout. Moreover, the “CA1 histology (toluidine blue)” value is reported as “these same pathologic features were present” in [8] (setting [13]); “partially preserve dendritic extension” in [8] (blast-injured, oral 3 mg/kg/day); “fully preserved all structural aspects” in data set [8] (blast-injured, oral 30 mg/kg/d); “did not change” in [8] (sham-injured, oral 30 mg/kg/d). For the same compound, the “axons and neuronal mitochondria (TEM)” value in [8] (setting [13]) was “degenerating axons with characteristic unraveling of the myelin sheath”; in [8] (blast-injured, oral 3 mg/kg/d), “partial resolution of pathological signs”; in data set [8] (blast-injured, oral 30 mg/kg/d) it was “full protection”; in data set [8] (sham-injury, oral 30 mg/kg/d) it was “normally myelinated axons”. Besides, in [9], the “increase in number of foot slips” value is “normalized”. The “time spent in the escape area” value in data set [10] (3 mg/kg/day begun 10 months after injury, after 4 and 8 weeks) is recorded as “sustained improvement in cognitive function”. Further, the “cognition relative to vehicle group after withdrawal” value in data set [10] (after 8 weeks of treatment, then withdrawn) is listed as “sustained improvement in cognition”. Moreover, in data set [11], the inhibition at 50 µM was less than 15%.
With `COc1cccc(NCC(F)Cn2c3ccc(Br)cc3c3cc(Br)ccc32)c1` (centres unmarked) [P7C3-A20, N-(3-(3,6-dibromo-9H-carbazol-9-yl)-2-fluoropropyl)-3-methoxyaniline], in data set [12], the “protection of cerebral cortical neurons” value was “protect rat cerebral cortical neurons”.

What is called pIC50 is the negative decadic logarithm of the IC50, by convention in mol/L. A low value points to a large IC50. Broadly, the inhibition is the change of the read-out against control, counted positive when it falls.
